The results in this text go back to patent publication US6821980B1, “Substituted 5-benzyl-2,4-diaminopyrimidines” (Basilea Pharmaceutica AG, priority 1999, dated 2004).

Assay [1] has as its system Streptococcus pneumoniae 1/1. Description: MIC against Streptococcus pneumoniae 1/1. The conditions noted are these: Streptococcus pneumoniae 1/1, trimethoprim- and penicillin-resistant, serotype 6, clinical isolate; for MIC: read-out: MIC Sp1/1. In kind it is cell-based.
The test system of assay [2] is Staphylococcus aureus 101. Nature of the assay: MIC against Staphylococcus aureus 101. The conditions noted are these: Staphylococcus aureus 101, MRSA- and trimethoprim-resistant, clinical isolate; for MIC: read-out: MIC Sa101. In kind it is cell-based.
The target in assay [3] is T1, purified DHFR of strain Sp1/1 of Streptococcus pneumoniae (Streptococcus pneumoniae serotype 4, UniProt Q54801).
T1 sequence (Q54801 1-168 I100L): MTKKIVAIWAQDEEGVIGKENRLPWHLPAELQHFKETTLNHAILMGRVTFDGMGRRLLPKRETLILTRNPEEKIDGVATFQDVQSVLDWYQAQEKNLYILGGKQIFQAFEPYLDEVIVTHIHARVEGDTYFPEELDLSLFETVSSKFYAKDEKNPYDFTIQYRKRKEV
It counts as biochemical. The conditions noted are these: IC50 against purified DHFR of strain Sp1/1.

Assay [4] has as its target purified DHFR of strain 157/4696 of Staphylococcus aureus (Staphylococcus aureus, UniProt P13955). Nature of the assay: biochemical.
Setting [5] is: Table 2, IC50 against purified DHFR of strain 157/4696 (highly trimethoprim-resistant; clinical isolate), read-out: DHFR Sa1.

SMILES strings stand for the structures. Converted amounts (≈) assume the structure as drawn. Where two headings read alike, the source gives them in different places.

Chain of purified DHFR of strain 157/4696 of Staphylococcus aureus (P13955 whole entry): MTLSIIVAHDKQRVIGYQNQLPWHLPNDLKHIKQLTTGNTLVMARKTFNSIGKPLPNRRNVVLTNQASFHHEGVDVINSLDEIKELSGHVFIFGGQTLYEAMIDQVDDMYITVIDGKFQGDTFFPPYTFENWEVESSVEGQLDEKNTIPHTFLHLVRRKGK

In the case of `CCOc1cc(Cc2cnc(N)nc2N)cc(OS(=O)(=O)N(C)C)c1-c1ccc(N)c(C)c1` [Example 27-a, Dimethylsulphamic acid 4′-amino-4-(2,4-diamino-pyrimidin-5-ylmethyl)-6-ethoxy-3′-methyl-biphenyl-2-yl ester], the values for the MIC in assay [1] (Table 2) and in assay [2] (Table 2) were 1 µg/mL (≈ 2.12 µM) and 2 µg/mL (≈ 4.23 µM), respectively. Besides, the IC50 worked out at 22 nM in assay [3] (Table 2) and 220 nM in assay [4].

Regarding `CCOc1cc(Cc2cnc(N)nc2N)cc(OS(=O)(=O)N(C)CC)c1-c1ccc(N)c(C)c1` [Example 27-b, N-Ethyl-N-methyl-sulphamic acid 4′-amino-4-(2,4-diamino-vyrimidin-5-ylmethyl)-6-ethoxy-3′-methyl-biphenyl-2-yl ester], the MIC in assay [1] (Table 2) is 1 µg/mL (≈ 2.06 µM); in assay [2] (Table 2), 2 µg/mL (≈ 4.11 µM). Also, the IC50 in assay [3] (Table 2) was 14 nM; in assay [4] it was 190 nM.

`CCOc1cc(Cc2cnc(N)nc2N)cc(OS(=O)(=O)N(C)C2CC2)c1-c1ccc(N)c(C)c1` [Example 27-c, N-Cyclopropyl-N-methyl-sulphamic acid 4′-amino-4-(2,4-diamino-pyrimidin-5-ylmethyl)-6-ethoxy-3′-methyl-biphenyl-2-yl ester]: the MIC in assay [1] (Table 2) and in assay [2] (Table 2) was 1 µg/mL (≈ 2.01 µM) each time. Also, the IC50 in assay [3] (Table 2) was determined as 2.6 nM; in assay [4], 180 nM.

Regarding `CCOc1cc(Cc2cnc(N)nc2N)cc(OS(=O)(=O)N(C)C)c1-c1ccc(N)c(F)c1` [Example 28-a, Dimethylsullhamic acid 4′-amino-4-(2,4-diamino-pyrimidin-5-ylmethyl)-6-ethoxy-3′-fluoro-biphenyl-2-yl ester], the values for the MIC in assay [1] (Table 2) and in assay [2] (Table 2) were 1 µg/mL (≈ 2.1 µM) and 2 µg/mL (≈ 4.2 µM), respectively. For the same compound, the IC50 in assay [3] (Table 2) was 5.8 nM; in assay [4], 320 nM.

Regarding `CCOc1cc(Cc2cnc(N)nc2N)cc(OS(=O)(=O)N(C)CC)c1-c1ccc(N)c(F)c1` [Example 28-b, N-Ethyl-N-methyl-sulphamic acid 4′-amino-4-(2,4-diamino-pyrimidin-5-ylmethyl)-6-ethoxy-3′-fluoro-biphenyl-2-yl ester], the MIC turned out to be 1 µg/mL (≈ 2.04 µM) in assay [1] (Table 2) and 2 µg/mL (≈ 4.08 µM) in assay [2] (Table 2). For the same compound, the IC50 was 6.8 nM in assay [3] (Table 2) and 320 nM in assay [4].

For `CCOc1cc(Cc2cnc(N)nc2N)cc(OS(=O)(=O)N(C)C2CC2)c1-c1ccc(N)c(F)c1` [Example 28-c, N-Cyclopropyl-N-methyl-sulphamic acid 4′-amino-4-(2,4-diamino-pvrimidin-5-ylmethyl)-6-ethoxy-3′-fluoro-biphenyl-2-yl ester], the MIC in assay [1] (Table 2) amounted to 1 µg/mL (≈ 1.99 µM); in assay [2] (Table 2), 2 µg/mL (≈ 3.98 µM). For the same compound, the IC50 in assay [3] (Table 2) was 18 nM; in assay [4], 240 nM.

On to `CCOc1cc(Cc2cnc(N)nc2N)cc(OS(=O)(=O)N(C)C2CC2)c1-c1cc(N)cc(F)c1` [Example 29-a, N-Cyclopropyl-N-methyl-sulphamic acid 3′-amino-4-(2,4-diamino-pyrimidin-5-ylmethyl)-6-ethoxy-5′-fluoro-biphenyl-2-yl ester], for which the MIC in assay [1] (Table 2) was 2 µg/mL (≈ 3.98 µM); in assay [2] (Table 2) it was 1 µg/mL (≈ 1.99 µM). For the same compound, the IC50 came out at 6.3 nM in assay [3] (Table 2) and 220 nM in assay [4].

Consider `CCOc1cc(Cc2cnc(N)nc2N)cc(OS(=O)(=O)N(C)C)c1-c1cc(N)cc(F)c1` [Example 29-b, Dimethylsulphamic acid 3′-amino-4-(2,4-diamino-pyrimidin-5-ylmethyl)-6-ethoxy-5′-fluoro-biphenyl-2-yl ester], for which the MIC in assay [1] (Table 2) and in assay [2] (Table 2) was 2 µg/mL (≈ 4.2 µM) in each case. The results for the IC50 in assay [3] (Table 2) and in assay [4] were 14 nM and 95 nM, respectively.

`CCOc1cc(Cc2cnc(N)nc2N)cc(OS(=O)(=O)N(C)CC)c1-c1cc(N)cc(F)c1` [Example 29-c, N-Ethyl-N-methyl-sulphamic acid 3′-amino-4-(2,4-diamino-pyrimidin-5-ylmethyl)-6-ethoxy-5′-fluoro-biphenyl-2-yl ester]: the MIC in assay [1] (Table 2) and in assay [2] (Table 2) was 2 µg/mL (≈ 4.08 µM) in each case. Besides, the IC50 worked out at 5.2 nM in assay [3] (Table 2) and 170 nM in assay [4].

As for `CCOc1cc(Cc2cnc(N)nc2N)cc(OS(=O)(=O)N(C)C)c1-c1ccc(CN2CCOCC2)c(N)c1` [Example 30-a, Dimethylsulphamic acid 3′-amino-4-(2,4-diamino-pyrimidin-5-ylmethyl)-6-ethoxy-4′-morpholin-4-ylmethyl-biphenyl-2-yl ester], the MIC in assay [1] (Table 2) and in assay [2] (Table 2) was 2 µg/mL (≈ 3.59 µM) throughout. In addition, the results for the IC50 in assay [3] (Table 2) and in assay [4] were 4.5 nM and 88 nM, respectively.

As for `CCOc1cc(Cc2cnc(N)nc2N)cc(OS(=O)(=O)N(C)C2CC2)c1-c1ccc(CN2CCOCC2)c(N)c1` [Example 30-b, N-Cyclopropyl-N-methyl-sulphamic acid 3′-amino-4-(2,4-diamino-pyrimidin-5-ylmethyl)-6-ethoxy-4′-morpholin-4-ylmethyl-biphenyl-2-yl ester], the MIC in assay [1] (Table 2) and in assay [2] (Table 2) was 2 µg/mL (≈ 3.43 µM) each time. Moreover, the IC50 in assay [3] (Table 2) was found to be 14 nM; in assay [4] it was 37 nM.

Turning to `CCOc1cc(Cc2cnc(N)nc2N)cc(OS(=O)(=O)N(C)CC)c1-c1ccc(CN2CCOCC2)c(N)c1` [Example 30-c, N-Ethyl-N-methyl-sulphamic acid 3′-amino-4-(2,4-diamino-pyrimidin-5-ylmethyl)-6-ethoxy-4′-morpholin-4-ylmethyl-biphenyl-2-yl ester], the MIC in assay [1] (Table 2) and in assay [2] (Table 2) was 2 µg/mL (≈ 3.5 µM) in each case. In addition, the figures for the IC50 in assay [3] (Table 2) and in assay [4] were 16 nM and 140 nM, respectively.

Regarding `CCOc1cc(Cc2cnc(N)nc2N)cc(OS(=O)(=O)N(C)CC)c1-c1ccc(C)c(N)c1` [Example 31-b, N-Ethyl-N-methyl-sulphamic acid 3′-amino-4-(2,4-diamino-pyrimidin-5-ylmethyl)-6-ethoxy-4′-methyl-biphenyl-2-yl ester], the MIC in assay [1] (Table 2) was 1 µg/mL (≈ 2.06 µM); in assay [2] (Table 2) it was 2 µg/mL (≈ 4.11 µM). Further, the IC50 in assay [3] (Table 2) was 4.4 nM; in assay [4] it was 130 nM.

Take `CCOc1cc(Cc2cnc(N)nc2N)cc(OS(=O)(=O)N(C)C)c1-c1ccc(C)c(N)c1` [Example 31a, Dimethylsulphamic acid 3′-amino-4-(2,4-diamino-pyrimidin-5-ylmethyl)-6-ethoxy-4′-methyl-biphenyl-2-yl ester]: the MIC in assay [1] (Table 1) and in assay [2] (Table 1) was 1 µg/mL (≈ 2.12 µM) in each case. The IC50 in assay [3] (Table 1) stood at 1.9 nM; in assay [4], 110 nM.

For the compound `CCCS(=O)(=O)Oc1cc(Cc2cnc(N)nc2N)cc(OCC)c1-c1ccc(CN2CCOCC2)c(N)c1` [Example 32-a, Pronane-1-sulophonic acid 3′-amino-4-(2,4-diamino-pyrimidin-5-ylmethyl)-6-ethoxy-4′-morpholinemethyl-4-ylmethyl-biphenyl-2-yl ester], the “MIC Sp1/1” value in assay [1] (Table 2) turned out to be 1 µg/mL (≈ 1.8 µM). In assay [2] (Table 2), the “MIC Sa101” value came to 4 µg/mL (≈ 7.19 µM). Moreover, the figures for the IC50 in assay [3] (Table 2) and in assay [4] (setting [5]) were 4.6 nM and 120 nM, respectively.

As to `CCCS(=O)(=O)Oc1cc(Cc2cnc(N)nc2N)cc(OCC)c1-c1ccc(N)c(C)c1` [Example 32-b], in assay [1] (Table 2), the “MIC Sp1/1” value worked out at 1 µg/mL (≈ 2.12 µM). Further, the “MIC Sa101” value in assay [2] (Table 2) turned out to be 4 µg/mL (≈ 8.48 µM). Further, the figures for the IC50 in assay [3] (Table 2) and in assay [4] (setting [5]) were 4.2 nM and 160 nM, respectively.

On to `CCCS(=O)(=O)Oc1cc(Cc2cnc(N)nc2N)cc(OCC)c1-c1ccc(F)c(N)c1` [Example 32-c], for which the “MIC Sp1/1” value in assay [1] (Table 2) was found to be 1 µg/mL (≈ 2.1 µM). Moreover, the “MIC Sa101” value in assay [2] (Table 2) worked out at 4 µg/mL (≈ 8.41 µM). For the same compound, the IC50 was found to be 6.1 nM in assay [3] (Table 2) and 130 nM in assay [4] (setting [5]).

Turning to `CCCS(=O)(=O)Oc1cc(Cc2cnc(N)nc2N)cc(OCC)c1-c1ccc(OC)c(N)c1` [Example 32-d, Propane-1-sulphonic acid 3′-amino-4-(2,4-diamino-pyrimidin-5-ylmethyl)-6-ethoxy-4′-methoxy-4-ylmethyl-biphenyl-2-yl ester], the “MIC Sp1/1” value in assay [1] (Table 2) is 1 µg/mL (≈ 2.05 µM). Moreover, the “MIC Sa101” value in assay [2] (Table 2) amounted to 2 µg/mL (≈ 4.1 µM). Besides, the IC50 in assay [3] (Table 2) was 5.9 nM; in assay [4] (setting [5]) it was 140 nM.

With `CCCS(=O)(=O)Oc1cc(Cc2cnc(N)nc2N)cc(OCC)c1-c1ccc(N)c(F)c1` [Example 32-e, Propane-1-sulphonic acid 4′-amino-4-(2,4-diamino-pyrimidin-5-ylmethyl)-6-ethoxy-3′-fluoro-4-ylmethyl-biphenyl-2-yl ester], in assay [1] (Table 2), the “MIC Sp1/1” value stood at 1 µg/mL (≈ 2.1 µM). Further, in assay [2] (Table 2), the “MIC Sa101” value was determined as 4 µg/mL (≈ 8.41 µM). The IC50 in assay [3] (Table 2) worked out at 6.8 nM; in assay [4] (setting [5]), 280 nM.

Consider `CCCS(=O)(=O)Oc1cc(Cc2cnc(N)nc2N)cc(OCC)c1-c1cc(N)cc(F)c1` [Example 32-f, Propane-1-sulphonic acid 3′-amino-4-(2,4-diamino-pyrimidin-5-ylmethyl)-6-ethoxy-5′-fluoro-4-ylmethyl-biphenyl-2-yl ester], for which the “MIC Sp1/1” value in assay [1] (Table 2) stood at 1 µg/mL (≈ 2.1 µM). In assay [2] (Table 2), the “MIC Sa101” value came to 4 µg/mL (≈ 8.41 µM). The IC50 in assay [3] (Table 2) worked out at 30 nM; in assay [4] (setting [5]), 420 nM.

Consider `CCCS(=O)(=O)Oc1cc(Cc2cnc(N)nc2N)cc(OCC)c1-c1ccc(CN(C)C)c(N)c1` [Example 32-g, Propane-1-sulphonic acid 3′-amino-4-(2,4-diamino-pyrimidin-5-ylmethyl)-6-ethoxy-4′-dimethylaminomethyl-4-ylmethyl-biphenyl-2-yl ester], for which the “MIC Sp1/1” value in assay [1] (Table 2) came to 4 µg/mL (≈ 7.77 µM). Further, the “MIC Sa101” value in assay [2] (Table 2) was 8 µg/mL (≈ 15.5 µM). The IC50 was 75 nM in assay [3] (Table 2) and 68 nM in assay [4] (setting [5]).
